One test has as its target T1, HSV-1 helicase-primase (Human herpesvirus 1, UniProt P10189+P10236).
T1 construct: made in house; host or cells: Sf21 insect cells triply infected with recombinant baculoviruses (UL5, UL8, UL52)
Description: HSV-1 DNA-dependent ATPase assay (inhibition of HSV-1 helicase-primase). The class given is biochemical. The text has this: A) HSV-1 DNA-Dependent ATP Assay (an in Vitro Assay Based on the Inhibition of HSV-1 Helicase-primase).
HSV-1 helicase-primase holoenzyme was produced in triply infected Sf21 cells using recombinant baculoviruses expressing the UL5, UL8 and UL52 helicase-primase subunits, as described by S. Dracheva et al., J. Biol. Chem. 1995, 270, 14148. The crude enzyme was purified by ammonium sulfate precipitation, Source 15Q® chromatography and Sephacryl® S-300 HR gel filtration (both purification systems can be obtained from Pharmacia Biotech Inc., Montreal, Quebec, Canada), see S. Dracheva et al., supra.
The DNA-dependent ATPase assay, described by J. J. Crute et al., Nucleic Acids Res. 1988, 16, 6585, was modified and used to evaluate the capability of the compounds of Group 1-formula 1 to inhibit HSV-1 helicase-primase activity. The reaction mixtures (80 μL each) contained 40 mM 4-(2-hydroxyethyl)-1-piperazineethanesulfonic acid (HEPES, pH 7.5), 10% (v/v) glycerol, 5.5 mM MgCl2, 1 mM DL-dithiothreitol (DTT), 50 μg/mL acetylated bovine serum albumin, 3.3% (v/v) DMSO, 4 mM ATP, 25 μM single-stranded M13 DNA hybridized to double-tailed 68-mer oligonucleotide and 3 μg/mL HSV-1 helicase-primase. After incubation for 20 min at 34°, formation of inorganic phosphate from hydrolysis of ATP was monitored spectrophotometrically at 650 nm using acidic ammonium molybdate/malachite green reagent, P. A. Lanzetta et al., Anal. Biochem. 1979, 100, 95. DNA-dependent ATPase activity was calculated from the net absorbance change in the presence and absence of inhibition.

The test system of a further test is HCMV (strain AD169). In words: Inhibition of HCMV replication, plaque reduction assay (PRA, Hs-68 cells). In kind it is cell-based, Human Cytomegalovirus (HCMV). The following applies: read-out: PRA CMV EC50. The protocol: C) Inhibition of Human Cytomegalovirus (HCMV) Replication
The effect of compounds on the replication of HCMV has been measured by using an ELISA-based assay (ELISA) and a plaque reduction assay (PRA).
Hs-68 cells (ATCC # CRL 1635) were seeded in 12-well plates at 83,000 cells/well in 1 mL of DMEM medium (Gibco Canada Inc.) supplemented with 10% fetal bovine serum (FBS, Gibco Canada Inc.). The plates were incubated for 3 days at 37° to allow the cells to reach 80-90% confluency prior to the assay.
The medium was removed from the cells by aspiration. The cells were then infected with approximately 50 PFU of HCMV (strain AD169, ATCC VR-538) in DMEM medium supplemented with 5% inactivated FBS (assay medium). The virus was allowed to adsorb to cells for 2 h at 37°. Following viral adsorption, the medium was removed from the wells by aspiration. The cells were then incubated with or without 1 mL of appropriate concentrations of test reagent in assay medium. After 4 days of incubation at 37°, the medium was exchanged with fresh medium containing test compound and 4 days later the cells were fixed with 1% aqueous formaldehyde and stained with a 2% crystal violet solution in 20% ethanol in water. Microscopic plaques were counted using a stereomicroscope. Drug effects were calculated as a percent reduction in the number of plaques in the presence of each drug concentration compared to the number observed in the absence of drug. Ganciclovir was used as a positive control in all experiments.
The EC50 values obtained according to this assay for certain thiazolyl derivatives of this invention are listed in the following tables under the heading PRA CMV.

Another test concerns HSV-1 strain F or KOS. Description: Inhibition of herpes simplex virus (HSV-1) replication in cell culture (BHK-21 cells, glycoprotein C ELISA). The class given is cell-based. As to the method:
B) Inhibition of Herpes Simplex Virus (HSV-1) Replication in Cell Culture
BHK-21 cells clone 13 (ATCC CCL10) were incubated for two days in 850 cm^2 roller bottles (2×10^7 cells/bottle) with A-MEM medium (Gibco Canada Inc., Burlington, Ontario, Canada) supplemented with 8% (v/v) fetal bovine serum (FBS, Gibco Canada, Inc.). The cells were trypsinized and then 3,000 cells in 100 μL of fresh medium were transferred into each well of a 96-well microtiter plate. The cells were incubated at […] for a period of 3 days to reach a density of 50,000 cells per well. The cells were washed twice with 100 μL of α-MEM supplemented with 2% heat inactivated FBS and incubated for 1-2 hours in 100 μL of the same medium.
Thereafter, the cells were infected with HSV-1 strain F or KOS (multiplicity of infection =0.05 PFU/cell) in 50 μL of α-MEM supplemented with 2% heat inactivated FBS. Following one hour of virus absorption at 37°, the medium was removed and the cells were washed with α-MEM supplemented with 2% heat inactivated FBS (2×100 μL). The cells were incubated with or without 100 μL of the appropriate concentration of test reagent in α-MEM medium supplemented with 2% heat inactivated FBS. After 24 hours of incubation at 37°, the extent of viral replication was determined by an ELISA assay; for instance, the following assay that detects the late glycoprotein C of HSV-1.
Cells were fixed in the microtiter plate with 100 μL of 0.063% glutaraldehyde in phosphate buffered saline for 30 min at room temperature. The microtiter plate was then washed once with casein blocking solution and blocked with 200 μL of the same solution for one hour at room temperature. Thereafter, 100 μL of mAb C11 recognizing the glycoprotein C of HSV-1 (see E. Trybala et al., Journal of General Virology, 1994, 75, 743) was added to each well for two hours at room temperature. The plate was washed three times with phosphate buffered saline containing 0.05% polyoxyethylene (20) sorbitan monooleate. The cells were incubated with 100 μL of sheep anti-mouse IgG horseradish peroxidase for one hour at room temperature in the dark.
The plate was washed three times with 200 μL of the above-noted phosphate buffer saline preparation, and then once with 0.1 M sodium citrate (pH 4.5). Thereafter, 100 μL of orthophenylenediamine dihydrochloride (OPD, Gibco, Canada Inc.) was added to each well. The plate was agitated on a microplate shaker for 30 min in the dark. Color development was monitored at 450 nm using a microplate spectrophotometer.
SAS was used to calculate % inhibition of viral replication and to generate EC50 values.

The mark [1] stands for this setting: Human betaherpesvirus 5, AD169, Hs68, Group 1 Table 1 entries.
Setting [2] is: Human alphaherpesvirus 1, BHK-21, Group 1 Table 1 entries.
[3] abbreviates: Human betaherpesvirus 5, AD169, Hs68, Group 2 Table 1 entries.

Read-outs that look alike come from different tables or passages of the source.

T1 sequence (P10192 whole entry): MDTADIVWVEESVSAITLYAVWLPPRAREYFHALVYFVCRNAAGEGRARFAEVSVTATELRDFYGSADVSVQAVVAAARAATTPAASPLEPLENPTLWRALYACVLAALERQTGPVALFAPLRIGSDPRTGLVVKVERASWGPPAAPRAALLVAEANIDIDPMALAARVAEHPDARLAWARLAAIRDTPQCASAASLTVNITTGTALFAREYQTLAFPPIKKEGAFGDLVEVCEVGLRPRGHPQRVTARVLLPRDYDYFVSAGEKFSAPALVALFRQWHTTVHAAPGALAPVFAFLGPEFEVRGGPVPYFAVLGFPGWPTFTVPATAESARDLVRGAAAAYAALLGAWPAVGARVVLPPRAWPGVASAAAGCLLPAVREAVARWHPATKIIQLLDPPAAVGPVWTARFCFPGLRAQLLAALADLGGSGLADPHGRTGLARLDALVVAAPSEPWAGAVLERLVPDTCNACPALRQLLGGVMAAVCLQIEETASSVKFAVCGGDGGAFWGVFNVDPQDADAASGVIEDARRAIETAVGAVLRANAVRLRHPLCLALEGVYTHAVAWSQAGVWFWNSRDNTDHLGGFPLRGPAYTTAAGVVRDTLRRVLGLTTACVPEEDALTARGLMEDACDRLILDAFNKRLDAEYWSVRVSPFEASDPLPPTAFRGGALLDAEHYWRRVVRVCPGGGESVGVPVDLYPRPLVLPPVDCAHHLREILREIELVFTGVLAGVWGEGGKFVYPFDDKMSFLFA
T1 sequence (P10236 whole entry): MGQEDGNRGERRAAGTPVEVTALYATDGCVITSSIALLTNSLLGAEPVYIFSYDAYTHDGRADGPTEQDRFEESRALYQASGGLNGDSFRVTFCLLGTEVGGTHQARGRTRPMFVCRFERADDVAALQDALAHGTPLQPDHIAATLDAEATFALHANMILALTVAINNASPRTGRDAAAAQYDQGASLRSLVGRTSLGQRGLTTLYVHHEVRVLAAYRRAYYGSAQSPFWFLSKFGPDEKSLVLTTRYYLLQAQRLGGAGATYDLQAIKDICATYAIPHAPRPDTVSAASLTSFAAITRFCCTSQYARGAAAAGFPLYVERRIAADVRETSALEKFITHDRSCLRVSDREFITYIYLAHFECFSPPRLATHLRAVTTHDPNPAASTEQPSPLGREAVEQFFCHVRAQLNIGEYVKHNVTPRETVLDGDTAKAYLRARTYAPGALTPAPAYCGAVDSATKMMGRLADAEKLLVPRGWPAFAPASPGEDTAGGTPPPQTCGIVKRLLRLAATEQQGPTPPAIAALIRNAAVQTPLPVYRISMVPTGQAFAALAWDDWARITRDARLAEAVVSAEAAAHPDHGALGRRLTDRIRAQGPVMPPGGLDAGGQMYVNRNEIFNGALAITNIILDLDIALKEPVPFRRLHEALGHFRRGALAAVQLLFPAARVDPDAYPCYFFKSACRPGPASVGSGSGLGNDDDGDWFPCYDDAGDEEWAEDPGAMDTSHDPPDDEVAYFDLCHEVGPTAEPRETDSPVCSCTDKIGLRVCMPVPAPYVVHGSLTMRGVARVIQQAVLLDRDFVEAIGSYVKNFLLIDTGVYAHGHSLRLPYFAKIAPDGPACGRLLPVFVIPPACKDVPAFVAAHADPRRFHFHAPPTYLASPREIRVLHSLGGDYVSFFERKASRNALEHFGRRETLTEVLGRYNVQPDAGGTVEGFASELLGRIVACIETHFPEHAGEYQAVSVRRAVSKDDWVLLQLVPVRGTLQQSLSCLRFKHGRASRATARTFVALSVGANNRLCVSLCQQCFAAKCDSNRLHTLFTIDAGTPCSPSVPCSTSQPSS
T1 sequence (P10189 whole entry): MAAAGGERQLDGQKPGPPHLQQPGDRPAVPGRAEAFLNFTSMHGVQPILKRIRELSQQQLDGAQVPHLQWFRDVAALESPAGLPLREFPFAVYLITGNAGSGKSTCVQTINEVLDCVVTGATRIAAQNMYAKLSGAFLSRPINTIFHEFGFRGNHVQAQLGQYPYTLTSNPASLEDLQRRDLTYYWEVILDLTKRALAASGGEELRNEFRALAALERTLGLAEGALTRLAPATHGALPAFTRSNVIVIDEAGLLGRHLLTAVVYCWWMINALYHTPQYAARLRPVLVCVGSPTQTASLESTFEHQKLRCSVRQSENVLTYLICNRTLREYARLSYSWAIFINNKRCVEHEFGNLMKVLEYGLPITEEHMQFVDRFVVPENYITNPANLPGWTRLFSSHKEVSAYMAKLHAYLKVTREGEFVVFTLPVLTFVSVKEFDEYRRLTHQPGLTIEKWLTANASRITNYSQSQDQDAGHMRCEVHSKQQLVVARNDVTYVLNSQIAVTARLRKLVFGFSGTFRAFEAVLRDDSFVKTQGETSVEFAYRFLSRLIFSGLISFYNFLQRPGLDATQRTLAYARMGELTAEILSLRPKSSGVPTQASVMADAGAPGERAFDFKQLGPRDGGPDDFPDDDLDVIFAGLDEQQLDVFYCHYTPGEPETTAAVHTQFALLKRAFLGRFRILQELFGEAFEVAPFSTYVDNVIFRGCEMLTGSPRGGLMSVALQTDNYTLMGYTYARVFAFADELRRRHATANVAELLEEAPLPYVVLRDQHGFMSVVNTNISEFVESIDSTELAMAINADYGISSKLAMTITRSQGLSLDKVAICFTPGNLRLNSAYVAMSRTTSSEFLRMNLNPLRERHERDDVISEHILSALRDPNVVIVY

What is called IC50 is the concentration needed to halve the response being measured. A lower IC50 goes with higher potency. For orientation: EC50 means the concentration that produces a half-maximal response. `CN[C@H](Cc1ccccc1)C(=O)Nc1ccc(-c2csc(N)n2)cc1` [Example 18] displayed an IC50 at HSV-1 helicase-primase (Group 1 Table 5 entries) of 24.5 µM. The EC50 with HCMV (strain AD169) (Human betaherpesvirus 5, AD169, Hs68, Group 1 Table 5 entries) was over 48 µM.
As for `Nc1nc(-c2ccc(NC(=O)CNC(=O)c3cccnc3)cc2)cs1` [Example 20], half-maximal inhibition against HSV-1 helicase-primase (Group 1 Table 1 entries) (IC50) was put at 23 µM. The EC50 with HCMV (strain AD169) (setting [1]) is 60 µM.
For `NCC(=O)N(CC(=O)Nc1ccc(-c2csc(N)n2)cc1)Cc1ccccc1` [Example 71] the same measures were 30 µM and over 32 µM.
Consider `Nc1nc(-c2ccc(NC(=O)CCN(Cc3ccccc3)C(=O)c3cccnc3)cc2)cs1` [Example 6], for which the EC50 with HSV-1 strain F or KOS (Human alphaherpesvirus 1, BHK-21, Group 1 Table 2 entries) turned out to be 4800 nM; in the test on HCMV (strain AD169) (Human betaherpesvirus 5, AD169, Hs68, Group 1 Table 2 entries) it was 22 µM.
As for `Nc1nc(-c2ccc(NC(=O)CNCc3ccc(F)cc3)cc2)cs1` [Example 4], half-maximal inhibition on HSV-1 helicase-primase (Group 1 Table 1 entries) (IC50) was put at 3.5 µM. The figures for the EC50 in the test on HSV-1 strain F or KOS (setting [2]) and in the test on HCMV (strain AD169) (setting [1]) were 1800 nM and 16 µM, respectively.
On HSV-1 helicase-primase (Group 1 Table 1 entries), `Nc1nc(-c2ccc(NC(=O)CN(Cc3ccc(Cl)cc3)C(=O)C3CCCCC3)cc2)cs1` [Example 45] came in with an IC50 of 0.05 µM. Further, the EC50 came to 1 nM in the test on HSV-1 strain F or KOS (setting [2]) and 5.5 µM in the test on HCMV (strain AD169) (setting [1]).
In turn, `C[C@H](c1ccccc1)N(CC(=O)Nc1ccc(-c2csc(N)n2)cc1)C(=O)Cc1ccccn1` [Example 136] had a concentration for half-maximal inhibition (IC50) against HSV-1 helicase-primase (Group 1 Table 1 entries) of 4.2 µM. For the same compound, the EC50 with HCMV (strain AD169) (setting [1]) came out at 31 µM.
On HSV-1 helicase-primase (Group 1 Table 1 entries), `Nc1nc(-c2ccc(NC(=O)CNC(=O)c3ccncc3)cc2)cs1` [Example 21] returned a half-maximal inhibitory concentration (IC50) of 4.2 µM. In addition, the figures for the half-maximal effective concentration (EC50) with HSV-1 strain F or KOS (setting [2]) and with HCMV (strain AD169) (setting [1]) were 1300 nM and over 71 µM, respectively.
In the same order, the values of `Nc1nc(-c2ccc(NC(=O)CN(Cc3ccccc3)C(=O)C3CCCCCC3)cc2)cs1` [Example 37] are 0.029 µM, 2 nM and over 74 µM.
As to `Nc1nc(-c2ccc(NC(=O)CN(Cc3ccccc3)C(=O)COc3ccccc3)cc2)cs1` [Example 120], at HSV-1 helicase-primase (Group 1 Table 1 entries), the IC50 came to 0.54 µM. For the same compound, the half-maximal effective concentration (EC50) with HCMV (strain AD169) (setting [1]) was found to be 15 µM.
As for `CN(C(=O)CNCc1ccccc1)c1ccc(-c2csc(N)n2)cc1` [Example 3], the IC50 on HSV-1 helicase-primase (Group 1 Table 3 entries) came to 13 µM. For the same compound, the concentration for a half-maximal effect (EC50) in the test with HSV-1 strain F or KOS (Human alphaherpesvirus 1, BHK-21, Group 1 Table 3 entries) came out at 4000 nM; in the test with HCMV (strain AD169) (Human betaherpesvirus 5, AD169, Hs68, Group 1 Table 3 entries) it was 80 µM.
With `C[C@@H](c1ccccc1)N(CC(=O)Nc1ccc(-c2csc(N)n2)cc1)C(=O)c1cccnc1` [Example 134], half-maximal inhibition against HSV-1 helicase-primase (Group 1 Table 1 entries) (IC50) was put at 0.26 µM. In addition, the 50% effective concentration (EC50) in the test on HCMV (strain AD169) (setting [1]) came out at 18 µM.
For `Nc1nc(-c2ccc(NC(=O)CN(CCc3ccccc3)C(=O)c3ccncc3)cc2)cs1` [Example 125] the same measures were 0.159 µM and 80 µM.
Compound `Nc1nc(-c2ccc(NC(=O)CNC(=O)c3ccccn3)cc2)cs1` [Example 19] returned an IC50 on HSV-1 helicase-primase (Group 1 Table 1 entries) of 13 µM. For the same compound, the EC50 in the test on HSV-1 strain F or KOS (setting [2]) turned out to be 4500 nM; with HCMV (strain AD169) (setting [1]) it was 20 µM.
Take `C[C@H](c1ccccc1)N(CC(=O)Nc1ccc(-c2csc(N)n2)cc1)C(=O)c1ccncc1` [Example 137]: on HSV-1 helicase-primase (Group 1 Table 1 entries), the midpoint of inhibition, the IC50, lay at 0.98 µM. Further, the EC50 in the test on HCMV (strain AD169) (setting [1]) is 49 µM.
In turn, `C#CCNC(=O)Nc1ccc(-c2csc(N)n2)cc1` [Example 17] returned an IC50 at HSV-1 helicase-primase (Group 2 Table 1 entries) of 33 µM. Besides, the EC50 in the test on HCMV (strain AD169) (setting [3]) was over 74 µM.
On to `Nc1nc(-c2ccc(NC(=O)CN(Cc3ccccc3)C(=O)Cc3cccs3)cc2)cs1` [Example 116], for which the half-maximal effective concentration (EC50) in the test on HCMV (strain AD169) (setting [1]) was 19 µM.
`CCCCN(C)C(=O)Nc1ccc(-c2csc(NC(=O)OC(C)(C)C)n2)cc1` [Example 30]: in the test on HCMV (strain AD169) (setting [3]), the EC50 was 2.2 µM.
With `Nc1nc(-c2ccc(NC(=O)CN(Cc3cccc(F)c3)C(=O)Cc3ccccn3)cc2)cs1` [Example 126], the EC50 in the test on HCMV (strain AD169) (setting [1]) amounted to 35 µM.
In turn, `Nc1nc(-c2ccc(NC(=O)N[C@H](CO)Cc3ccccc3)cc2)cs1` [Example 28] gave an IC50 on HSV-1 helicase-primase (Group 2 Table 1 entries) of 6.6 µM. In the test with HCMV (strain AD169) (setting [3]), the EC50 came out at 30 µM.
As for `Nc1nc(-c2ccc(NC(=O)CN(Cc3ccc(F)cc3)C(=O)Cc3ccccn3)cc2)cs1` [Example 124], in the test with HCMV (strain AD169) (setting [1]), the concentration for a half-maximal effect (EC50) came out at 28 µM.
For the compound `Nc1nc(-c2ccc(NC(=O)NCCc3ccccc3)cc2)cs1` [Example 13], on HSV-1 helicase-primase (Group 2 Table 1 entries), the IC50 was determined as 37 µM. Besides, in the test on HCMV (strain AD169) (setting [3]), the EC50 is over 4 µM.

Source of the values: patent US6288091A, “Antiherpes virus compounds and methods for their preparation and use” (Boehringer Ingelheim Ltd., priority 1999, dated 2001).
